The source of these data is PubChem BioAssay (NCI).

Common to all, as to experiment: NCI-60 cell line screen, 48 h
Experiment [1] relates to ACHN renal.
Experiment [2] concerns HL-60(TB) leukemia.
The subject of experiment [3] is NCI-H226 lung.
Experiment [4] relates to OVCAR-5 ovarian.
Experiment [5] concerns SF-539 CNS.
Experiment [6] deals with KM12 colon.
The test system of experiment [7] is NCI-H23 lung.
Experiment [8] has as its system CCRF-CEM leukemia.
For experiment [9], the system named is TK-10 renal.
In experiment [10] the test system is SN12C renal.

Several values for one entry are separate records, joined by “and”; a condition that tells them apart may be missing. Equal values may be shown once.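 48-hour exposure; five concentrations; linearly interpolated endpoints. GI50: concentration for 50% inhibition of growth. Definition used: TGI = concentration required for complete inhibition of growth.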

As to `Cc1c(C(C)C)cc(OCCO)cc1C(C)C`, the TGI was greater than 100 µM in [1]; 56.9 µM in experiment [2]; greater than 100 µM in [3]; greater than 100 µM in experiment [4]; greater than 100 µM in [5]; greater than 100 µM in experiment [6]. For the same molecule, the TGI in experiment [7] was greater than 100 µM; in experiment [8], greater than 100 µM; in experiment [9], greater than 100 µM; in experiment [10], 93.1 µM.
As for `CCOP(=O)(OCC)/C(C#N)=C\c1cccc2ccccc12`, the TGI in experiment [1] was greater than 100 µM; in experiment [2], greater than 62.8 µM; in [3], greater than 73.8 µM; in experiment [4], greater than 100 µM; in experiment [5], greater than 100 µM; in experiment [6] it was greater than 100 µM. In addition, the TGI in [7] is greater than 100 µM; in experiment [8], 97.7 µM; in experiment [9], greater than 100 µM; in [10], greater than 100 µM.
With `Cn1c(=O)n(-c2ccc(C(C)(C)C#N)cc2)c2c3cc(-c4cnc5ccccc5c4)ccc3ncc21`, the GI50 in experiment [1] was < 0.0121 µM and 0.00573 µM and < 0.01 µM; in experiment [2], 0.0701 µM and 0.0705 µM and 0.0783 µM; in experiment [3] it was less than 0.001 µM; in [4], 0.0213 µM and 0.00759 µM and 0.0159 µM; in [5], < 0.01 µM and 0.00503 µM; in experiment [6] it was 0.0134 µM and 0.00683 µM and 0.0153 µM. In addition, the GI50 in [7] is 0.0169 µM and 0.00838 µM and < 0.0127 µM; in [8] it was < 0.01 µM and 0.00575 µM and < 0.0109 µM; in experiment [9], 0.0102 µM and 0.00652 µM and 0.0126 µM; in experiment [10], 0.0101 µM and 0.00461 µM and < 0.01 µM. Besides, the TGI in [1] was greater than 100 µM; in experiment [2] it was 2.4 µM and > 5.01 µM; in [4], greater than 100 µM; in experiment [5], 0.0761 µM and 0.0316 µM and 0.118 µM; in experiment [6], 1.28 µM and > 10 µM; in [7], 15.9 µM and > 10 µM and > 100 µM. Moreover, the TGI in experiment [8] and in [10] was greater than 100 µM in each case.
On to `O=c1c2ccccc2nc(-c2ccccc2)n1NCC1(O)OCC(O)C(O)C1O` (stereo not drawn), for which the TGI in [1], in experiment [2], in experiment [3], in experiment [4], in experiment [5] and in [6] was greater than 100 µM throughout. Besides, the TGI in experiment [7], in [8], in [9] and in experiment [10] was greater than 100 µM throughout.
Regarding `COc1ccc2nc3ccc(OC)cc3c(SCCCN)c2c1`, the GI50 in experiment [1] is 4.72 µM; in experiment [2], 4.34 µM; in experiment [3] it was 19.2 µM; in experiment [4], 13.5 µM; in [5], 13.7 µM; in experiment [6], 4.52 µM. Also, the GI50 in [7] was 5.37 µM; in experiment [8], 1.76 µM; in experiment [9], 2.03 µM; in [10] it was 10.8 µM. For the same molecule, the TGI in experiment [1] is 19.5 µM; in experiment [2] it was 9.49 µM; in experiment [3] it was 65.7 µM; in experiment [4], 28.3 µM; in experiment [5] it was 26.8 µM; in experiment [6] it was 20.5 µM. In addition, the TGI in [7] was 15.4 µM; in experiment [8], 4.11 µM; in [9] it was 10.5 µM; in experiment [10] it was 25.5 µM.
For the molecule `c1ccc2c(c1)nc(NCCN1CCNCC1)c1c3ccccc3[nH]c21`, the GI50 in experiment [1] was 0.369 µM; in experiment [2], 0.308 µM; in experiment [3] it was 1.2 µM; in experiment [4] it was 0.477 µM; in [5], 0.616 µM; in [6], 0.369 µM. In addition, the GI50 is 0.666 µM in experiment [7], 0.086 µM in experiment [8], 1.34 µM in [9] and 0.19 µM in [10]. The TGI in [1] is 2.38 µM; in experiment [2] it was 1.36 µM; in experiment [3], 3.91 µM; in experiment [4], 3.15 µM; in [5] it was 2.2 µM; in [6], 2.56 µM. The TGI in [7] amounted to 2.03 µM; in experiment [8], 1.82 µM; in experiment [9] it was 6.91 µM; in experiment [10], 1.18 µM.
`Brc1ccc2c(c1)C1(c3cc(Br)ccc3-2)c2cc(Br)ccc2-c2ccc(Br)cc21`: the TGI in experiment [1], in experiment [2], in experiment [3], in [4], in [5] and in [6] was greater than 100 µM each time. The TGI in [7], in [8], in experiment [9] and in experiment [10] was greater than 100 µM each time.
In the case of `O=C1c2c(O)cccc2C(C(=O)CCCCC(=O)C2c3cccc(O)c3C(=O)c3c(O)cccc32)c2cccc(O)c21`, the GI50 in experiment [1] is 2.04 µM; in [2], 0.744 µM; in experiment [3], 1.1 µM; in experiment [4], 0.961 µM; in experiment [5], 1.01 µM; in [6] it was 0.884 µM. Further, the GI50 in experiment [7] was 1.25 µM; in [8] it was 1.2 µM; in [9], 2.85 µM; in [10], 3.31 µM. Besides, the TGI in experiment [1] was 1.95 µM and 6.17 µM; in experiment [2], 1.14 µM and 1.67 µM; in experiment [3], 2.27 µM and 2.89 µM; in experiment [4] it was 1.22 µM and 1.85 µM; in experiment [5], 0.873 µM and 2.02 µM; in [6], 1.31 µM and 1.68 µM. In addition, the TGI in [7] was 1.56 µM and 2.59 µM; in [8] it was 2.65 µM and 2.61 µM; in experiment [9] it was 3.65 µM and 8.35 µM; in experiment [10] it was 3.89 µM and 9.64 µM.
As for `O=C(CCCCCCCCCCc1ccccc1)c1c(O)cccc1O`, the TGI stood at 69.9 µM in experiment [1]; 71.6 µM in [2]; 41.8 µM in [3]; 45.2 µM in [4]; 34.8 µM in experiment [5]; 33.2 µM in experiment [6]. In addition, the TGI was 35.9 µM in experiment [7], 90.8 µM in [8], greater than 100 µM in experiment [9] and 34.6 µM in [10].
As to `C[C@@H](NC(=O)Cc1cc(F)cc(F)c1)C(=O)N[C@@]1(C)N=C(c2ccccc2)c2ccccc2N(C)C1=O`, the GI50 in experiment [1] was greater than 84.5 µM; in experiment [2], 10.6 µM; in [3], 24 µM; in experiment [4] it was greater than 83.5 µM; in experiment [5] it was greater than 56 µM; in experiment [6], 41.3 µM. For the same molecule, the GI50 in experiment [7] was 43.4 µM; in experiment [8] it was 24.6 µM; in [9], 31.2 µM; in experiment [10], 32 µM. Besides, the TGI in experiment [1] is greater than 100 µM; in experiment [2], greater than 55.4 µM; in experiment [3] it was 71.9 µM; in experiment [4], greater than 100 µM; in experiment [5] it was greater than 100 µM; in experiment [6], greater than 100 µM. For the same molecule, the TGI is greater than 100 µM in [7], greater than 100 µM in experiment [8], greater than 88.8 µM in experiment [9] and 97.5 µM in [10].
